Measurements published in the NIST ThermoML archive (doi:10.1007/s10765-014-1759-1).
Numbers after ± are expanded uncertainties.

Conditions: 101.33 kPa, Liquid; for viscosity: Capillary tube (Ostwald / Ubbelohde) method; for mass density: Vibrating tube method

## C1CCCCC1 [cyclohexane]
293.15 K
  viscosity: 0.978 ± 0.0084 mPa·s
  mass density: 778.7 ± 0.3 kg/m3
298.15 K
  viscosity: 0.8931 ± 0.0079 mPa·s
  mass density: 773.9 ± 0.3 kg/m3

## Cc1ccccc1 [toluene]
293.15 K
  viscosity: 0.5891 ± 0.0061 mPa·s
  mass density: 866.7 ± 0.6 kg/m3
298.15 K
  viscosity: 0.5528 ± 0.006 mPa·s
  mass density: 862 ± 0.6 kg/m3

## CCc1ccccc1 [ethylbenzene]
293.15 K
  viscosity: 0.6735 ± 0.0066 mPa·s
  mass density: 867.1 ± 0.6 kg/m3
298.15 K
  viscosity: 0.6318 ± 0.0064 mPa·s
  mass density: 862.7 ± 0.6 kg/m3

## CCCCCCC [heptane]
293.15 K
  viscosity: 0.412 ± 0.0053 mPa·s
  mass density: 684 ± 0.6 kg/m3
298.15 K
  viscosity: 0.3895 ± 0.0052 mPa·s
  mass density: 679.7 ± 0.6 kg/m3

## CCCCCCCC [octane]
293.15 K
  viscosity: 0.5433 ± 0.0059 mPa·s
  mass density: 702.5 ± 0.6 kg/m3
298.15 K
  viscosity: 0.5108 ± 0.0057 mPa·s
  mass density: 698.5 ± 0.6 kg/m3
